Results on seven molecules are retold here after patent publication US20110001093A1, “FULLERENE DERIVATIVE” (SUMITOMO CHEMICAL COMPANY LIMITED, priority 2007, published 2011).

SMILES strings stand for the structures.

The series can be described thus: Evaluation of solubility in xylene (visual observation). The class given is physicochemical. Conditions: stirred by magnetic stirrer 10 minutes, visually observed.

Consider `COCCOCCN1CC2C3=c4c5c6c7c(cc8cc9cc%10cc%11cc%12c%13c(c4c4c5c5c7c8c7c9c%10c8c%11c%13c4c8c75)=C(C3)C%12)CC62C1c1ccc(C(F)(F)F)cc1` (stereo not shown) [Fullerene derivative F], for which the “Solubility of a 1 wt % xylene solution” value was “Dissolved”. The same measure for `COCCOCCN1CC2C3=c4c5c6c7c(cc8cc9cc%10cc%11cc%12c%13c(c4c4c5c5c7c8c7c9c%10c8c%11c%13c4c8c75)=C(C3)C%12)CC62C1c1c(F)c(F)c(F)c(F)c1F` (stereo not shown) [Fullerene derivative B, N-methoxyethoxyethyl-2-(perfluorophenyl)fulleropyrrolidine]: “Dissolved”; for `COCCOCCN1CC2C3=c4c5c6c7c(cc8cc9cc%10cc%11cc%12c%13c(c4c4c5c5c7c8c7c9c%10c8c%11c%13c4c8c75)=C(C3)C%12)CC62C1c1cccc2ccccc12` (stereo not shown) [Fullerene derivative A, N-methoxyethoxyethyl-2-(1-naphthyl)fulleropyrrolidine]: “Dissolved”. The same measure for `COCCOCCN1CC2C3=c4c5c6c7c(cc8cc9cc%10cc%11cc%12c%13c(c4c4c5c5c7c8c7c9c%10c8c%11c%13c4c8c75)=C(C3)C%12)CC62C1c1ccc(C)cc1` (stereo not shown) [Fullerene derivative D, N-methoxyethoxyethyl-2-(4-methylphenyl)fulleropyrrolidine]: “Dissolved”; for `COCCOCCN1CC2C3=c4c5c6c7c(cc8cc9cc%10cc%11cc%12c%13c(c4c4c5c5c7c8c7c9c%10c8c%11c%13c4c8c75)=C(C3)C%12)CC62C1c1ccccc1` (stereo not shown) [Fullerene derivative E, N-methoxyethoxyethyl-2-phenyl-fulleropyrrolidine]: “Dissolved”; for `COCCOCCN1CC2C3=c4c5c6c7c(cc8cc9cc%10cc%11cc%12c%13c(c4c4c5c5c7c8c7c9c%10c8c%11c%13c4c8c75)=C(C3)C%12)CC62C1c1ccc(F)cc1` (stereo not shown) [Fullerene derivative C, N-methoxyethoxyethyl-2-(4-fluorophenyl) fulleropyrrolidine]: “Dissolved”. As for `COCCOCCN1CC2C3=c4c5c6c7c(cc8cc9cc%10cc%11cc%12c%13c(c4c4c5c5c7c8c7c9c%10c8c%11c%13c4c8c75)=C(C3)C%12)CC62C1CCc1ccccc1` (stereo not shown) [Fullerene derivative G, N-methoxyethoxyethyl-2-(2-phenylethyl)fulleropyrrolidine], the entry is “Dissolved”.
